{"source": "patent US20240083857A1", "about": "“2-Methyl-Quinazolines” (Bayer Pharma Aktiengesellschaft, priority 2017, published 2024)", "key": {"[1]": {"biological_target": "K-Ras^G12C : hSOS1 interaction (Homo sapiens, UniProt Q07889)", "test": "Biochemical assay 1: K-Ras^G12C interaction assay with hSOS1 (HTRF)", "type": "binding", "conditions": "read-out: Assay 1 (KRAS-SOS Interaction) activity expressed as IC50"}, "[2]": {"biological_target": "Epidermal Growth Factor Receptor (EGFR) (Homo sapiens (Human), UniProt P00533)", "sequence (P00533 25-1210)": "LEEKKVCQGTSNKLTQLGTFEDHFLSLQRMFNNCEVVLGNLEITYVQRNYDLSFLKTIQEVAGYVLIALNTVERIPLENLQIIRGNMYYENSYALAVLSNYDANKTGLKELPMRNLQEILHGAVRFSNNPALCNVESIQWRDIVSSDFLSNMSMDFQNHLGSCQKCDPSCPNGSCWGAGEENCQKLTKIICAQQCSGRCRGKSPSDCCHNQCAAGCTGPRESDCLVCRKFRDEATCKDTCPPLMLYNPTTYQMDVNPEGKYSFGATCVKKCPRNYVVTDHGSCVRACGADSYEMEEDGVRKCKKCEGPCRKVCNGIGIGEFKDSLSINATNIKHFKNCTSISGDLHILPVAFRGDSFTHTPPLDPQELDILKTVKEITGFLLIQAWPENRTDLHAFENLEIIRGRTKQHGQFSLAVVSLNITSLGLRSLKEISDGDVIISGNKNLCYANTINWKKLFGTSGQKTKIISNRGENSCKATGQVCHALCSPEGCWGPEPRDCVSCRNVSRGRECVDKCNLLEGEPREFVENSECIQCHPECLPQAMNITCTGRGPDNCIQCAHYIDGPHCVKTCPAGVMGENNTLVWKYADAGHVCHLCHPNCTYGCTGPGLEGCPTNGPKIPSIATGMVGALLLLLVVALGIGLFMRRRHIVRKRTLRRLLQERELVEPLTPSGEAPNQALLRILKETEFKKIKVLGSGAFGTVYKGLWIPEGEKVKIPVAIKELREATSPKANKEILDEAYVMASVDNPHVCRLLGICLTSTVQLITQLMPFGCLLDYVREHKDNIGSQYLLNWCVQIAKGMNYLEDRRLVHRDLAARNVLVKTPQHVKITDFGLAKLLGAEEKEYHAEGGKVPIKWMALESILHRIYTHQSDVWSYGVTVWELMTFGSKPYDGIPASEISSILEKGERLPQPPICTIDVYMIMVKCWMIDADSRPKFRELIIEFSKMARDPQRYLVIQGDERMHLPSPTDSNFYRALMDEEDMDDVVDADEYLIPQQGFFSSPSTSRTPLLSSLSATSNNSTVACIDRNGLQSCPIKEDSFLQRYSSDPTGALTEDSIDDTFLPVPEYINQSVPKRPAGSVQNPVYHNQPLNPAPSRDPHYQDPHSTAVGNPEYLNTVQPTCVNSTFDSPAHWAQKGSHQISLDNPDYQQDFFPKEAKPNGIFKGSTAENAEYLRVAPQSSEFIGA", "test": "EGFR kinase assay (TR-FRET)", "type": "biochemical", "conditions": "values given in μM; read-out: EGFR kinase inhibition IC50", "procedure,_shortened": "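Read-out is the 665/620 nm HTRF ratio, from a Tb-cryptate anti-phosphotyrosine antibody and streptavidin-XL665 bound to phosphorylated biotin-peptide substrate. The enzyme, A431-derived EGFR (~3 U/ml), was given 15 min compound pre-binding at 22° C in Hepes pH 7.0 with Mg2+/Mn2+ before reaction.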"}}}
{"smiles": "COc1cc2nc(C)nc(NC(C)c3cccs3)c2cc1OC", "note": "(stereo not drawn) [Example 207, 6,7-dimethoxy-2-methyl-N-[1-(thiophen-2-yl)ethyl]quinazolin-4-amine]", "values": [{"measurement": "IC50", "setting": "[1]", "value": 2.73, "unit": "µM"}, {"measurement": "IC50", "setting": "[2]", "value": "> 20", "unit": "µM"}]}
{"smiles": "COc1cc2nc(C)nc(N[C@H](C)c3cccc(C4CC4)c3)c2cc1OC", "note": "[Example 204, N-[(1R)-1-(3-cyclopropylphenyl)ethyl]-6,7-dimethoxy-2-methylquinazolin-4-amine]", "values": [{"measurement": "IC50", "setting": "[1]", "value": 0.229, "unit": "µM"}, {"measurement": "IC50", "setting": "[2]", "value": "> 20", "unit": "µM"}]}
{"smiles": "COc1cc2nc(C)nc(NC(C)c3ccc(-c4ccccc4CN4CCC(O)C4)s3)c2cc1OC", "note": "(stereo not drawn) [Example 210, 1-[2-(5-{1-[(6,7-dimethoxy-2-methylquinazolin-4-yl)amino]ethyl}thiophen-2-yl)benzyl]pyrrolidin-3-ol]", "values": [{"measurement": "IC50", "setting": "[1]", "value": 0.0385, "unit": "µM"}, {"measurement": "IC50", "setting": "[2]", "value": "> 20", "unit": "µM"}]}
{"smiles": "COc1cc2nc(C)nc(NC(C)c3cccc4ccoc34)c2cc1OC", "note": "(stereo not drawn) [Example 4, N-[1-(1-benzofuran-7-yl)ethyl]-6,7-dimethoxy-2-methylquinazolin-4-amine]", "values": [{"measurement": "IC50", "setting": "[1]", "value": 0.161, "unit": "µM"}, {"measurement": "IC50", "setting": "[2]", "value": "> 20", "unit": "µM"}]}
{"smiles": "COc1cc2nc(C)nc(NC(C)c3cccc(-c4nn[nH]n4)c3)c2cc1OC", "note": "(stereo not drawn) [Example 216, 6,7-dimethoxy-2-methyl-N-{1-[3-(2H-tetrazol-5-yl)phenyl]ethyl}quinazolin-4-amine]", "values": [{"measurement": "IC50", "setting": "[1]", "value": 6.58, "unit": "µM"}, {"measurement": "IC50", "setting": "[2]", "value": "> 20", "unit": "µM"}]}
{"smiles": "COc1cc2nc(C)nc(NC(C)c3ccc(-c4ccccc4CN4CCC(N(C)C)C4)s3)c2cc1OC", "note": "(stereo not drawn) [Example 238, N-{1-[5-(2-{[3-(dimethylamino)pyrrolidin-1-yl]methyl}phenyl)thiophen-2-yl]ethyl}-6,7-dimethoxy-2-methylquinazolin-4-amine]", "values": [{"measurement": "IC50", "setting": "[1]", "value": 0.0816, "unit": "µM"}, {"measurement": "IC50", "setting": "[2]", "value": "> 20", "unit": "µM"}]}
{"smiles": "COc1cc2nc(C)nc(NC(C)c3cccc4[nH]nc(C)c34)c2cc1OC", "note": "(stereo not drawn) [Example 13, 6,7-dimethoxy-2-methyl-N-[1-(3-methyl-1H-indazol-4-yl)ethyl]quinazolin-4-amine]", "values": [{"measurement": "IC50", "setting": "[1]", "value": 2.02, "unit": "µM"}, {"measurement": "IC50", "setting": "[2]", "value": "> 20", "unit": "µM"}]}
{"smiles": "COc1cc2nc(C)nc(NC(C)c3ccc(-c4cccc5cn[nH]c45)s3)c2cc1OC", "note": "(stereo not drawn) [Example 246, N-{1-[5-(1H-indazol-7-yl)thiophen-2-yl]ethyl}-6,7-dimethoxy-2-methylquinazolin-4-amine]", "values": [{"measurement": "IC50", "setting": "[1]", "value": 7.59, "unit": "µM"}, {"measurement": "IC50", "setting": "[2]", "value": "> 20", "unit": "µM"}]}
{"smiles": "COc1cc2nc(C)nc(NC(C)c3cccc4sccc34)c2cc1OC", "note": "(stereo not drawn) [Example 205, N-[1-(1-benzothiophen-4-yl)ethyl]-6,7-dimethoxy-2-methylquinazolin-4-amine]", "values": [{"measurement": "IC50", "setting": "[1]", "value": 0.0738, "unit": "µM"}, {"measurement": "IC50", "setting": "[2]", "value": "> 20", "unit": "µM"}]}
{"smiles": "COc1cc2nc(C)nc(N[C@H](C)c3cccc(C(N)=O)c3)c2cc1OC", "note": "[Example 199, 3-{(1R)-1-[(6,7-dimethoxy-2-methylquinazolin-4-yl)amino]ethyl}benzamide]", "values": [{"measurement": "IC50", "setting": "[1]", "value": 1.73, "unit": "µM"}, {"measurement": "IC50", "setting": "[2]", "value": "> 20", "unit": "µM"}]}
{"smiles": "COc1cc2nc(C)nc(NC(C)c3cccc4cn(C)nc34)c2cc1OC", "note": "(stereo not drawn) [Example 8, 6,7-dimethoxy-2-methyl-N-[1-(2-methyl-2H-indazol-7-yl)ethyl]quinazolin-4-amine]", "values": [{"measurement": "IC50", "setting": "[1]", "value": 18.2, "unit": "µM"}, {"measurement": "IC50", "setting": "[2]", "value": "> 20", "unit": "µM"}]}
{"smiles": "COc1cc2nc(C)nc(NC(C)c3ccc(-c4ccccc4)o3)c2cc1OC", "note": "(stereo not drawn) [Example 213, 6,7-dimethoxy-2-methyl-N-[1-(5-phenylfuran-2-yl)ethyl]quinazolin-4-amine]", "values": [{"measurement": "IC50", "setting": "[1]", "value": 6.76, "unit": "µM"}, {"measurement": "IC50", "setting": "[2]", "value": "> 20", "unit": "µM"}]}
{"smiles": "COc1cc2nc(C)nc(NC(C)c3csc(-c4ccc(F)cc4CN)c3)c2cc1OC", "note": "(stereo not drawn) [Example 255, N-[1-{5-[2-(aminomethyl)-4-fluorophenyl]thiophen-3-yl}ethyl]-6,7-dimethoxy-2-methylquinazolin-4-amine]", "values": [{"measurement": "IC50", "setting": "[1]", "value": 0.248, "unit": "µM"}, {"measurement": "IC50", "setting": "[2]", "value": "> 20", "unit": "µM"}]}
{"smiles": "COc1cc2nc(C)nc(NC(C)c3csc(Br)c3)c2cc1OC", "note": "(stereo not drawn) [Example 239, N-[1-(5-bromothiophen-3-yl)ethyl]-6,7-dimethoxy-2-methylquinazolin-4-amine]", "values": [{"measurement": "IC50", "setting": "[1]", "value": 7.07, "unit": "µM"}, {"measurement": "IC50", "setting": "[2]", "value": "> 20", "unit": "µM"}]}
{"smiles": "COc1cc2nc(C)nc(N[C@H](C)c3ccc(S(C)(=O)=O)cc3)c2cc1OC", "note": "[Example 188, 6,7-dimethoxy-2-methyl-N-{(1R)-1-[4-(methylsulfonyl)phenyl]ethyl}quinazolin-4-amine]", "values": [{"measurement": "IC50", "setting": "[1]", "value": 15.7, "unit": "µM"}, {"measurement": "IC50", "setting": "[2]", "value": "> 20", "unit": "µM"}]}
